Laboratory results published in patent US11219628B2, “Replacement of cytotoxic preconditioning before cellular immunotherapy” (priority 2017, dated 2022).
Entries after “also recorded” stand apart in the source; their conditions may differ. Read-outs that look alike come from different tables or passages of the source.

How the values were obtained:
[1] = tested on: Tregs; settings: in vivo; cited from earlier work
[2] = tested on: germinal centers; settings: 1 to 4 weeks of daily dosing; up to about 10 mgs/kg/day; cited from earlier work
[3] = tested on: neutrophil function; settings: cited from earlier work
[4] = tested on: peripheral blood lymphocytes; experiment: Repeat of Hinrichs dexamethasone dosing: peripheral blood lymphocytes by flow cytometry; type: in vivo; design: CD3+CD4+CD25+FoxP3+ Tregs reduction / CD3+ T lymphocytes reduction / CD3+CD4+ T lymphocytes reduction / CD3+CD8_T lymphocytes reduction: concentration or dose not given beside the values
From the text: Prior studies into the use of steroids to precondition a patient prior to ACT had shown this approach to be ineffective. […] In contrast, Hinrichs discloses that pretreatment with radiation did enhance ACT tumor killing. […] However, while Hinrichs reported 99% lymphodepletion, no enhancement of ACT tumor killing was observed. In contrast, Hinrichs observed that radiation does enhance ACT tumor killing. […] In contrast, CD3+ T lymphocytes were reduced from […] live events, only a non-significant […] reduction. CD3+CD4+ T lymphocytes were reduced from 1779 to 902 live events, only a non-significant 50% reduction. CD3+CD8_T lymphocytes were reduced from 1318 to 1277 live events, only a non-significant 3% reduction. CD3+CD4+CD25+FoxP3+ Tregs were reduced from 198 to 70 live events, only a non-significant 65% reduction. And natural killer (NK) cells were reduced from 1153 to 958 live events, only a non-significant 17% reduction.

[5] = tested on: peripheral blood T and B cells, germinal centers and marginal zones, plasma IL-2 and IL-15; experiment: Summary statements: acute dexamethasone doses needed for in vivo NTLA effects
From the text: The effects of glucocorticoids are complex and depend on each specific glucocorticoid's affinity for the GR and mineralocorticoid receptor (MR). Additionally, there are now 9 known isoforms of the cytosolic GR and additional membrane expressed GR receptors that have been identified but which are not fully characterized. […] In general, at low doses typically used for chronic therapy, glucocorticoids have been reported to redistribute lymphocytes from the peripheral blood into the bone marrow, at medium doses glucocorticoids have been reported to cause leukocytosis thought to be a redistribution of leukocytes from the bone marrow, spleen and thymus into the peripheral blood, and at high doses glucocorticoids have a lymphotoxic action on lymphocytes by triggering apoptosis and necroptosis.

[6] = tested on: multiple myeloma and other cancer cell lines; experiment: Direct tumor killing by acute dexamethasone; type: in vivo; settings: about 1.6 mg/kg HED in a 48 hour period
From the text: The desired in vivo effects of exemplary NTLAs would include reductions in germinal center and marginal zones in secondary lymphatics, direct tumor killing of some cancers particularly; multiple myeloma, renal cell carcinoma, leukemia and lymphoma, non-small cell lung cancer (NSCLC), prostate and breast cancer; depletion of all peripheral blood lymphocyte types, lack of lymphocyte redistribution to the BM or other organs, and elevation of plasma cytokines including IL-2, and/or IL-7, and/or IL-12, and/or IL-15 to levels preferably of 20 pg/ml or greater, among others.

[7] = tested on: IL-2, IL-15, IL-6; type: in vivo, human; settings: oral 3 mg/kg dexamethasone base; 48 hours
Method: (FIG. 12, FIG. 13, FIG. 14 and FIG. 15 show data from the same four human patients.)
Blood was drawn before drug treatment and 48 hours post-treatment for CBC analysis and flow cytometry to determine lymphocyte and other blood cell populations. Serum was analyzed for cytokine levels. For one patient, pre-treatment CBCs were not drawn and thus normalized flow cytometry data is shown for only 3 patients.

[8] = tested on: blood lymphocyte populations, HSCs
From the text: Each patients pre-treatment values are connected to post-treatment values by a connecting line. CD4+ cells are also CD3+. CD8+ cells are also CD3+.
Each patient's pre-treatment values are connected to post-treatment values by a connecting line. Tregs are identified by being CD3+CD4+CD25+FoxP3+. B lymphocytes are identified by being CD3-CD19+.
Each patient's pre-treatment values are connected to post-treatment values by a connecting line. NK cells are identified by being CD3-CD16/56+. HSCs are identified by being CD34+CD38-.
Blood was drawn before drug treatment and 48 hours post-treatment for CBC analysis and flow cytometry to determine lymphocyte and other blood cell populations. […] For one patient, pre-treatment CBCs were not drawn and thus normalized flow cytometry data is shown for only 3 patients.

[9] = tested on: MOPC315 cells; settings: mouse, in vivo
From the text: (§1) The mouse multiple myeloma MOPC315 cell line available from ATCC is tail vein inoculated to immunocompetent Balbc mice at 2×10^6 cells.
(§2) Balb/cJ (H-2d) and B10.D2 (H-2d) mice were purchased from Jackson Laboratory (Bar Harbor, Me., USA). Mice were used when they were between 10- to 14-wk-old. […] Red blood cells are lysed using sterile filtered RBC lysis buffer (eBioscience, San Diego, USA) and cells are washed, resuspended in phosphate buffered saline (PBS) containing 3% FBS, and filtered through a 70 mM nylon membrane. For CD8 T-cell depletion, the “Mouse CD8a positive selection kit” (Stem Cell, Grenoble, France) are used according to the manufacturer's EASYSEP depletion protocol. Finally, cells are suspended in 200 ml PBS for i.v. injection. Balbc mice are transplanted by i.v. tail vein injection of 1×10^7 bone marrow cells and 7×10^7 splenocytes from donor B10.D2 mice between 10 and 30 days after MOPC315 inoculation.
(§3) For allogeneic NK cell administration, fully functional NK cells are isolated from donor B10.D2 mice using commercially available kits such as the one from Miltenyi. Alternatively, mouse NK cells can be purchased from ATCC (KIL cells). The NK Cell Isolation Kit was developed for the isolation of untouched NK cells from single-cell suspensions of murine spleen. Non-NK cells, i.e. T cells, dendritic cells, B cells, granulocytes, macrophages, and erythroid cells are magnetically labeled by using a cocktail of biotin-conjugated antibodies and Anti-Biotin MicroBeads. Isolation of highly pure unlabeled NK cells is achieved by depletion of non-target cells. The kit has been optimized to give outstanding purities in C57BL/6J mice. 1×10^7 isolated NK cells are transplanted by IV tail vein injection between 10 and 30 days after MOPC315 inoculation.

[10] = cited from earlier work
[11] = tested on: germinal centers in spleen; experiment: Mouse spleen germinal centers by FITC-PNA immunofluorescence
[12] = tested on: blood lymphocytes, neutrophils, RBCs, platelets; experiment: Rat complete blood counts 48 hours after acute dexamethasone; settings: IV or PO 20, 40 or 80 mg/kg; for neutrophil number: all doses
[13] = tested on: blood lymphocyte populations, neutrophils, RBCs, platelets; experiment: Mouse CBC and flow cytometry 48 hours after oral acute dexamethasone; settings: oral HED 3, 6, 9 or 12 mg/kg
From the text: Treg lymphocytes were identified by being CD3+CD4+CD25+FoxP3+.
NK cells were identified by being CD3−CD49b+. B lymphocytes were identified by being CD3−B220+.

[14] = tested on: MOPC315 cells; experiment: Immunocompetent mouse model of multiple myeloma: preconditioning before alloHSCT or NK cells; settings: preconditioning before alloHSCT
From the text: as §1, §2, §3

[15] = tested on: spleen weights, germinal centers; settings: po daily for 13 weeks, mice; cited from earlier work
[16] = cited from earlier work; remark: listed apart in the source
[17] = tested on: RBC; settings: doses of about 24 mg/50 kg; cited from earlier work
[18] = Hinrichs dosing, non-significant

In the case of methylprednisone, the “effect on Tregs” value [1] is listed as “increases Tregs”.
For `C=CC[C@@H]1/C=C(\C)C[C@H](C)C[C@H](OC)[C@H]2O[C@@](O)(C(=O)C(=O)N3CCCC[C@H]3C(=O)O[C@H](/C(C)=C/[C@@H]3CC[C@@H](O)[C@H](OC)C3)[C@H](C)[C@@H](O)CC1=O)[C@H](C)C[C@@H]2OC` [Tacrolimus], the “daily dosing required to reduce germinal centers” value [2] is given as at least 0.48 mg/kg/day and the neutrophil function [3] is given as “inhibits neutrophil function”.
With `C[C@@H]1C[C@H]2[C@@H]3CCC4=CC(=O)C=C[C@]4(C)[C@@]3(F)[C@@H](O)C[C@]2(C)[C@@]1(O)C(=O)CO` [Dexamethasone, dexamethasone] the “CD3+ T lymphocytes reduction” value [4, 18] was 33%, the “CD3+CD4+ T lymphocytes reduction” value [4, 18] was 50% and the “CD3+CD4+CD25+FoxP3+ Tregs reduction” value [4, 18] was 65%. The “CD3+CD8_T lymphocytes reduction” value [4, 18] was 3%, the “natural killer (NK) cells reduction” value [4, 18] was 17% and the “CD3+CD4+CD25+FoxP3+ Tregs, live events” value ([4]; Hinrichs dosing, reduced from 198) was 70 live events. The “natural killer (NK) cells, live events” value ([4]; Hinrichs dosing, reduced from 1153) was 958 live events, the “CD3+CD8_T lymphocytes, live events” value ([4]; Hinrichs dosing, reduced from 1318) was 1277 live events and the “CD3+CD4+ T lymphocytes, live events” value ([4]; Hinrichs dosing, reduced from 1779) was 902 live events. The “CD3+ T lymphocytes, live events” value ([4]; intraperitoneal 10 mg/kg (HED 0.81 mg/kg) on day −6, −4, −2, reduced from 3370) was 2441 live events, the “B lymphocytes reduction vs vehicle control” value ([4]; intraperitoneal 10 mg/kg (HED 0.81 mg/kg) on day −6, −4, −2, significant) was 65% and the “B lymphocytes (CD3-CD19+ cells) in the peripheral blood, live events by flow cytometry” value ([4]; intraperitoneal 10 mg/kg (HED 0.81 mg/kg) on day −6, −4, −2, vehicle control 10680) was 3733 live events. For the same molecule, the “acute oral dose necessary to reduce peripheral blood T and B cells” value ([5]; 48 hours after administration) was at least 3 mg/kg, the “return to baseline levels of peripheral blood T and B cells” value ([5]; acute oral doses of 3 mg/kg or greater) was 5 to 14 days after dosing and the “acute dose required for lymphodepletion” value ([5]; in vivo) was over 3 mg/kg HED. The “acute dose that reduces germinal centers and marginal zones in secondary lymphatics” value ([5]; in vivo) was at least 6 mg/kg HED, the “dose of dexamethasone base at which plasma IL-2 and IL-15 cytokine elevations are observed” value ([5]; in vivo) was at least 3 mg/kg HED and the direct tumor killing [6] was “about 50%”. The “patients with increased serum IL-2 and/or IL-15 levels” value [7] was 100%, the patients showing lymphocytosis ([8]; 3 mg/kg HED) was 50% and the “hematopoietic stem cells (CD34+CD38-)” value ([8]; human, in vivo, po, 3 mg/kg) was “spared”. For the same molecule, the “toxicity compared to standard CyFlu preconditioning” value [9] was “much less toxicity”, the “toxicity compared to standard repeat CyFlu preconditioning” value [9] was “less toxicity” and the lowest lethal dose ([10]; healthy mice) was 114 mg/kg HED. The lowest lethal dose ([10]; tumor bearing mice) was 43 mg/kg HED, the neutrophil function [3] was “do not inhibit neutrophil function” and the “HED at which germinal centers are reduced in mice” value [11] was at least 3 mg/kg HED. The Hct [12] was “not affected”, the HgB [12] was “not affected” and the RBCs [12] was “not affected”. The platelets [12] was “not affected”, the neutrophil number [12] was “not reduced; also recorded: increased by all doses” and the neutrophil number ([12]; listed as Dex) was “does not reduce”. For the same molecule, the RBCs [13] was “spared”, the neutrophils [13] was “spared” and the platelets [13] was “spared”. The “B lymphocytes reduction compared to placebo” value ([13]; dose for the value not stated) was 83%, the “CD3+ T lymphocytes reduction compared to placebo” value ([13]; dose for the value not stated) was 65% and the “CD4+ T lymphocytes reduction compared to placebo” value ([13]; dose for the value not stated) was 75%. For the same molecule, the “CD8+ T lymphocytes reduction compared to placebo” value ([13]; dose for the value not stated) was 56%, the “Tregs reduction compared to placebo” value ([13]; dose for the value not stated) was 78% and the “absolute lymphocyte count reduction compared to placebo” value ([13]; dose for the value not stated) was 84%. The “natural killer cells (NK) reduction compared to placebo” value ([13]; dose for the value not stated) was 87%, the RBCs ([13]; listed as Dex) was “spares” and the neutrophils ([13]; listed as Dex) was “sparing”. For the same molecule, the platelets ([13]; listed as Dex) was “spares” and the “body weights after preconditioning (in words)” value [14] was “not reduced”.
In the case of `C[C@]12C=CC(=O)C=C1CC[C@@H]1[C@@H]2C(=O)C[C@@]2(C)[C@H]1CC[C@]2(O)C(=O)CO` [Prednisone], the “dose above which germinal centers are significantly impacted” value [15] is listed as “over 2.5 mg/kg”, the “dose above which spleen weights are significantly impacted” value [15] is listed as “over 2.5 mg/kg” and the biologic half-life [16] is listed as “about 20 hours”.
In the case of `C[C@H]1C[C@H]2[C@@H]3CCC4=CC(=O)C=C[C@]4(C)[C@@]3(F)[C@@H](O)C[C@]2(C)[C@@]1(O)C(=O)CO` [Betamethasone], the “effect on RBC” value [17] is listed as “reduces RBC”.
